{"source": "patent US20240285670A1", "about": "“THERAPEUTIC TREATMENT OF TUMORS BY BLOCKING THE HEME SYNTHESIS-EXPORT AXIS” (Università degli Studi di Torino, priority 2021, published 2024)", "key": {"Caco2 cells": {"system": "Caco2 cells", "assay": "Proliferation of Caco2 cells (crystal violet staining, cell viability)", "type": "cell-based, human", "settings": "FLVCR1a-silenced vs scramble shRNA Caco2 cells", "excerpt": "(A) Proliferation of Caco2 cells assessed by crystal violet staining at the indicated days; bar=1000 μm. […] Staining quantification is reported in the bar graph as percentage of crystal violet stained area. Data represent mean±SEM, n=4. For statistical analyses, a two-way analysis of variance was used, followed by the Bonferroni correction for multiple group comparisons; *=p<0.05, ***=p<0.001. (B) Caco2 cells viability the day of plating (day 0) and three days after plaiting (day 3). The measure is considered a readout of cell proliferation. […] Data represent mean±SEM, n=3 wells. For statistical analyses, a two-way analysis of variance was used, followed by the Bonferroni correction for multiple group comparisons; *=p<0.05, **=p<0.01. (C, D, E) Representative flow cytometric analyses of apoptosis in synchronized Caco2 (C), SKCO1 (D) and C80 (E) cells. […]\nTo assess cell viability, the CellTiter-Fluor Cell Viability Assay (Promega, Madison, WI USA, catalog n°G6080) was used. […] The detection of cell viability at different consecutive time points was regarded as a readout of cell proliferation.\nFor crystal violet staining, 1*10^4 Caco2 cells were seeded in 6-well plates. […] Stained area was assessed by analyses of four representative photos per day for each triplicate using Fiji open source software (Schindelin et al., 2012) (http://fiji.sc/ RRID:SCR_002285)."}, "SH-SY5Y cells": {"system": "SH-SY5Y cells", "assay": "TCA cycle flux in SHSY-5Y cells", "type": "cell-based, human", "settings": "FLVCR1a-silenced vs scramble shRNA SH-SY5Y cells", "excerpt": "Results were expressed as nmol NAD*/min/mg mitochondrial protein for complex I, nmol reduced cytochrome c/min/mg mitochondrial protein for complexes II-III, nmol oxidized cytochrome c/min/mg mitochondrial protein for complex IV. Data represent mean±SEM, n=3. For statistical analyses, an unpaired Student's t-test was used; *=p<0.05, **=p<0.01, *=p<0.001. […] Results are expressed as nmol/mg mitochondrial proteins. Data represent mean±SEM, n=3. For statistical analyses, an unpaired Student's t-test was used; *=p<0.05. […] Results are expressed as pmol CO2/h/mg protein. Data represent mean±SEM, n=3. For statistical analyses, an unpaired Student's t-test was used; **=p<0.01. […] Results were expressed as nmol NAD*/min/mg mitochondrial protein for complex I, nmol reduced cytochrome c/min/mg mitochondrial protein for complexes II-III, nmol oxidized cytochrome c/min/mg mitochondrial protein for complex IV. […] Results are expressed as nmol/mg mitochondrial proteins. […] Results are expressed as pmol CO2/h/mg protein. […] (H) TCA cycle enzymes activities are reported in boxes and expressed as mU/mg mitochondrial proteins. […] Results were expressed as nmol NAD^+/min/mg mitochondrial protein for complex I, nmol reduced cytochrome c/min/mg mitochondrial protein for complexes II-III, nmol oxidized cytochrome c/min/mg mitochondrial protein for complex IV. […] Results are expressed as nmol/mg mitochondrial proteins. […]"}}, "data": [{"substance": "FLVCR1a shRNA: shRNA specifically down-regulating FLVCR1a without targeting FLVCR1b; pLKO.1 lentiviral clone TRCN0000059599, antisense SEQ ID No.: 2 (antisense TTGCTAATGATGCTGTACTGG; sense CCAGTACAGCATCATTAGCAA)", "values": [{"measurement": "cell proliferation", "setting": "Caco2 cells", "value": "proliferated more slowly"}, {"measurement": "TCA cycle flux", "setting": "SH-SY5Y cells", "value": "increased TCA cycle flux"}]}]}
